This is an account of results in US5210239A, “Ouinone derivatives and pharmacological use” (Eisai Co., Ltd., priority 1989, dated 1993).

In series [1] the test system is rat D-galactosamine (GalN)-induced acute hepatitis model. The experiment in a line: rat D-galactosamine (GalN)-induced acute hepatitis model. The series is classed as in vivo, Fischer (F 344) male rat. The conditions noted are these: 300 mg/kg GalN s.c., compound 100 mg/kg oral 1 hr after GalN, blood 48 hr after GalN. On the procedure:
300 mg/kg of GalN was subcutaneously injected into a Fischer (F 344) male rat(s) (around 180 g) to induce acute hepatitis. Each test compound was suspended in a 0.5% aqueous methylcellulose solution and orally administered at a dose of 100 mg/kg one hr after the injection of GalN.
Blood was sampled from the tail of the rat 48 hr after the injection of GalN. The blood clotting time was measured by Hepaplastin test (HPT), and at the same time GPT activity in the plasma was measured enzymatically.

In series [2] the test system is mouse propionibactrium acnes (P. acnes)-lipopolysaccharide (LPS)-induced fulminant hepatitis model. The experiment in a line: mouse P. acnes-lipopolysaccharide (LPS)-induced fulminant hepatitis model. The series is classed as in vivo, male Balb/c mice. The conditions noted are these: for responders at 100 mg/kg: Cutibacterium acnes, po, 24 h, read-out: Survival rate (%), test compd. group. On the procedure:
One mg/mouse of heat-killed P. acnes was intravenously injected into a five-week-old male Balb/c mice and LPS was additionally intravenously injected at a dose of 1 microgram/mouse 7 days after the injection of P.acnes to induce fulminant hepatitis. Each test compound was suspended in a 0.5% methylcellulose solution and orally administered at a dose of 100 mg/kg 30 min before the intravenous injection of LPS.
Survival rates and GPT activity in plasma of the survivors were determined in 24 hours after the intravenous injection of LPS. The mice treated with each test compound against the lethality and hepatic injury induced with P. acnes-LPS are shown in Table 2.

The nature of series [3]: Toxicity test, one week oral administration. The series is classed as in vivo. More on the design: dose or concentration left out as unconfirmed. The conditions noted are these: seven-week male SD rat.
The mark [4] stands for this setting: read-out: Percentage inhibition (%) GPT (plasma GPT activity).
The mark [5] stands for this setting: read-out: Percentage inhibition (%) HPT (blood clotting time, Hepaplastin test).
[6] abbreviates: plasma GPT of survivors 24 hours after LPS, 100 mg/kg oral, value is test group.

Structures are written as SMILES. Read-outs that look alike come from different tables or passages of the source.

On to `CCCCCCCCC/C(=C\C1=C(C)C(=O)C(OC)=C(OC)C1=O)C(=O)O` [Example 4, (E)-3-[5-(2,3-Dimethoxy-6-methyl-1,4-benzoquinoyl)]-2-nonyl-2-propenoic acid], for which the inhibition in vivo at 100 mg/kg in series [1] (setting [4]) came to 91%; in series [1] (setting [5]), 87%. Further, in series [2], the responders at 100 mg/kg came out at 64%. Further, the “GPT (survival rate), test compd. group (%) [part 1]” value (“GPT (survival rate) … (%) [part 1]” below) in series [2] (setting [6]) was 358 ± 40%. For the same molecule, in series [3], the death entry is “no compound was found to cause death”.
`COc1c(O)c(C)c(/C=C(\C(=O)O)c2ccccc2)c(OC)c1OC` [Example 14, (Z)-3-[5-(1-Hydroxy-6-methyl-2,3,4-trimethoxy)phenyl]-2-phenyl-2-propenoic acid]: the inhibition in vivo at 100 mg/kg was found to be 78% in series [1] (setting [4]) and 76% in series [1] (setting [5]). Also, the responders at 100 mg/kg in series [2] stood at 100%. Also, the “GPT (survival rate) … (%) [part 1]” value in series [2] (setting [6]) is 297 ± 50%.
As for `CCCCC/C(=C\c1c(C)c(O)c(OCC)c(OCC)c1OCC)C(=O)O` [compound 20], the inhibition in vivo at 100 mg/kg in series [1] (setting [4]) and in series [1] (setting [5]) was 68% throughout. Further, the responders at 100 mg/kg in series [2] was 70%. Also, in series [2] (setting [6]), the “GPT (survival rate) … (%) [part 1]” value was 293 ± 65%.
As for `CCOc1c(O)c(C)c(/C=C(\Cc2ccccc2)C(=O)O)c(OCC)c1OCC` [compound 79], the inhibition in vivo at 100 mg/kg is 94% in series [1] (setting [4]) and 89% in series [1] (setting [5]). The responders at 100 mg/kg in series [2] is 50%. Besides, the “GPT (survival rate) … (%) [part 1]” value in series [2] (setting [6]) is listed as 1009 ± 196%.
Take `CCCCCCCCC/C(=C\c1c(C)c(O)c(OC)c(OC)c1O)C(=O)O` [compound 127]: the inhibition in vivo at 100 mg/kg in series [1] (setting [4]) stood at 60%; in series [1] (setting [5]) it was 71%.
In the case of `CCOC1=C(OC)C(=O)C(C)=C(/C=C(\CCC(C)C)C(=O)O)C1=O` [compound 135], the inhibition in vivo at 100 mg/kg in series [1] (setting [4]) is 52%; in series [1] (setting [5]), 51%. Moreover, in series [2], the responders at 100 mg/kg is 50%.
On to `COC1=C(/C=C(\CCC(C)C)C(=O)O)C(=O)C(OC)=C(OC)C1=O` [compound 137], for which the inhibition in vivo at 100 mg/kg in series [1] (setting [4]) is 77%; in series [1] (setting [5]), 73%. Further, the responders at 100 mg/kg in series [2] worked out at 30%. Besides, the death result in series [3] is reported as “no compound was found to cause death”.
With `COC1=C(OC)C(=O)C(/C=C(\CC2CCCCC2)C(=O)O)=C(C)C1=O` [compound 141], the inhibition in vivo at 100 mg/kg came out at 100% in series [1] (setting [4]) and 98% in series [1] (setting [5]). For the same molecule, the responders at 100 mg/kg in series [2] turned out to be 25%.
In the case of `CCOC1=C(OC)C(=O)C(C)=C(/C=C(\CC2CCCCC2)C(=O)O)C1=O` [compound 142], the inhibition in vivo at 100 mg/kg stood at 76% in series [1] (setting [4]) and 67% in series [1] (setting [5]). Also, the responders at 100 mg/kg in series [2] stood at 100%. The “GPT (survival rate) … (%) [part 1]” value in series [2] (setting [6]) was 381 ± 19%. In addition, in series [3], the death entry is reported as “no compound was found to cause death”.
Consider `CCOC1=C(OCC)C(=O)C(/C=C(\CC2CCCCC2)C(=O)O)=C(C)C1=O` [compound 144], for which the inhibition in vivo at 100 mg/kg in series [1] (setting [4]) was 78%; in series [1] (setting [5]), 79%. The responders at 100 mg/kg in series [2] is 100%. Besides, the “GPT (survival rate) … (%) [part 1]” value in series [2] (setting [6]) was 280 ± 31%.
The like results for `COC1=C(/C=C(\CC2CCCCC2)C(=O)O)C(=O)C(OC)=C(OC)C1=O` [compound 149] were, in that order, 93%, 95%, 67% and 209 ± 66%.
Turning to `COC1=C(OC)C(=O)C(/C=C(\CCCCC#N)C(=O)O)=C(C)C1=O` [compound 176], the inhibition in vivo at 100 mg/kg in series [1] (setting [4]) amounted to 96%; in series [1] (setting [5]), 97%. For the same molecule, the responders at 100 mg/kg in series [2] was found to be 80%. Besides, in series [2] (setting [6]), the “GPT (Ku/ml), test compd. group [part 2]” value is reported as 297 ± 50 Ku/ml.
Regarding `COC1=C(OC)C(=O)C(/C=C(\CCCSC)C(=O)O)=C(C)C1=O` [compound 183], the results for the inhibition in vivo at 100 mg/kg in series [1] (setting [4]) and in series [1] (setting [5]) were 86% and 80%, respectively. Also, in series [2], the responders at 100 mg/kg worked out at 22%.
As for `COC1=C(OC)C(=O)C(/C=C(\Cc2cccs2)C(=O)O)=C(C)C1=O` [compound 217], the inhibition in vivo at 100 mg/kg in series [1] (setting [4]) was 97%; in series [1] (setting [5]) it was 99%. Besides, in series [2], the responders at 100 mg/kg is 80%.
